Earlier results, collected in patent US20230279502A1, “IDENTIFICATION OF ESTROGEN RECEPTOR POSITIVE (ER+) BREAST CANCERS THAT WILL NOT DEVELOP TAMOXIFEN RESISTANCE” (Rutgers, The State University of New Jersey, priority 2020, published 2023).

Key:
ER+ breast cancers = settings: ER+ breast cancer patients treated with tamoxifen
human cancer cell lines = settings: different human cancer cell lines, based on expression levels of the read-out genes; high AUCs = decreased sensitivity

CC/C(=C(\c1ccccc1)c1ccc(OCCN(C)C)cc1)c1ccccc1 [tamoxifen]
Treated patients that develop therapeutic resistance (ER+ breast cancers): ~30%
Sensitivity to tamoxifen treatment (area under the dose-response curve) (human cancer cell lines): decreased sensitivity
